Data reported in patent US12552790B2, “Positive modulators of the muscarinic acetylcholine receptor M4” (Vanderbilt University, priority 2023, dated 2026).

Key:
P450 1A2 = target: T1, P450 1A2 (Homo sapiens, UniProt P05177); test: P450 1A2 inhibition; type: in vitro ADME
T1 sequence (P05177 1-516): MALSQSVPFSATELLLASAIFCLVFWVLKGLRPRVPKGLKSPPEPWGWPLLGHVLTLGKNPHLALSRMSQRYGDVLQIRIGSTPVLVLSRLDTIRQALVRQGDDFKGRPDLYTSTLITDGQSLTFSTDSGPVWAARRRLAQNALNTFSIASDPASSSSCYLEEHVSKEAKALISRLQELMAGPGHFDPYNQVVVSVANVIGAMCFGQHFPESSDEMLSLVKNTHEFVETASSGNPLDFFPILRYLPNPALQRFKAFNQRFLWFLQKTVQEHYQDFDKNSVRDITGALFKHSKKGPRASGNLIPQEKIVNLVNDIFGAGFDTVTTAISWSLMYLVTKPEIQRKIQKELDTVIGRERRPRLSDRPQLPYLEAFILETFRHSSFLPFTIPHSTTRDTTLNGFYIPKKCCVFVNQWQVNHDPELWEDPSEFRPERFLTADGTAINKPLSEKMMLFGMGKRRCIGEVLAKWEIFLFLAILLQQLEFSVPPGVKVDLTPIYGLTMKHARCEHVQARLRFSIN
Text: (§1) Compounds may be tested in in vitro assays to investigate both metabolism and pharmacokinetics. These assays may be performed according to known methods as generally described in the following references: Conde-Ceide et al. ACS Med. Chem. Lett. 2015, 6, 716-720; Morris et al. J. Med. Chem. 2014, 57, 10192-10197; and Bubser et al. ACS Chem. Neurosci. 2014, 5, 920-942.

[1] = Rat fraction unbound in plasma; type: in vitro ADME; conditions: read-out: Rat Fu (plasma)
Text: as §1

[2] = Dog fraction unbound in plasma; type: in vitro ADME; conditions: read-out: Dog Fu (plasma)
Text: as §1

[3] = Human fraction unbound in plasma; type: in vitro ADME; conditions: read-out: Human Fu (plasma)
Text: as §1

Rat intrinsic clearance = type: in vitro ADME
Text: as §1

P450 2C9 = P450 2C9 (Homo sapiens, UniProt P11712); test: P450 2C9 inhibition; type: in vitro ADME
P450 2C9, sequence (P11712 whole entry): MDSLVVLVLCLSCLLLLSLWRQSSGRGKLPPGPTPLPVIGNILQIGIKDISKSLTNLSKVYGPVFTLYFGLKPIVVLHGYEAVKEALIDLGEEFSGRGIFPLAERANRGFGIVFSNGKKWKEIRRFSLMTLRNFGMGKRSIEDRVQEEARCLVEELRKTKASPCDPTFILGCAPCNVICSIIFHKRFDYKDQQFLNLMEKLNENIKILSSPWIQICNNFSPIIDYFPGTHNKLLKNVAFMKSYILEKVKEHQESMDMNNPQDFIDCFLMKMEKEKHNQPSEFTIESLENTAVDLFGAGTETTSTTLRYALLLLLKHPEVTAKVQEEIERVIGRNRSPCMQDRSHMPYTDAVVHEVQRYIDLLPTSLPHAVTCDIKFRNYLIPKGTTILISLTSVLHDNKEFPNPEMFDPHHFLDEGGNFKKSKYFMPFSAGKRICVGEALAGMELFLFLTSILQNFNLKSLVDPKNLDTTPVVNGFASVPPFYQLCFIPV
Text: as §1

[4] = In vivo pharmacokinetic study in dog
[5] = tested on: amphetamine-induced hyperlocomotion in male Sprague-Dawley rats; test: Amphetamine-induced hyperlocomotion in rats; type: in vivo; conditions: rat; for percent reversal of amphetamine-induced hyperlocomotion: amphetamine 0.75 mg/kg s.c.
Description: Drugs: d-Amphetamine hemisulfate was obtained from Sigma (St. Louis, MO). Salt-correction was used to determine the correct amount of the d-amphetamine hemisulfate form in milligrams to add to sterile water in order to yield a 0.75 mg/mL solution, which would be dosed at 1 mL/kg body weight of each animal. […] The solutions were formulated so that animals were injected with a volume equal to 10 mL/kg body weight for all compounds. The appropriate amount according to the dosage was mixed in 10% Tween 80 (Sigma) in sterile water. The mixtures were then vortexed and stored in a 39° C. sonication bath for 1 hour, until in a solution or microsuspension (depending on dose).
Animals: Male Sprague-Dawley rats weighing 239-300 grams and averaging 265 g (Harlan, Inc., Indianapolis, IN) were used. They were housed in the animal care facility certified by the American Association for the Accreditation of Laboratory Animal Care (AALAC) under a 12-hour light/dark cycle (lights on: 6 a.m.; lights off: 6 p.m.) and had free access to food and water. The animals used in this experiment were food-deprived the evening before experimentation for oral dosing of compound/vehicle. The experimental protocols performed during the light cycle were approved by the Institutional Animals Care and Use Committee of Vanderbilt University and conformed to the guidelines established by the National Research Council Guide for the Care and Use of Laboratory Animals.
Amphetamine-induced Hyperlocomotion: Male Harlan Sprague Dawley rats were habituated in Smart Open Field locomotor activity test chambers (Hamilton-Kinder, San Diego, CA) with 16×16 photo beams to automatically record locomotor activity. […] They were monitored for an additional 30 minutes and then injected subcutaneously with vehicle or 0.75 mg/kg amphetamine. Animals were then monitored for an additional 60 minutes, for a total of 120 minutes. Data were expressed as changes in ambulation defined as total number of beam breaks per 5 minute interval. Terminal brain and plasma samples were collected at the end of the study for pharmacokinetic analysis.
Data Analysis: Behavioral data were analyzed using a two-way ANOVA with main effects of treatment and time. Post hoc analysis was performed using a Dunnett's t-test with all treatment groups compared to the Vehicle/amphetamine group (VAMP) group using GraphPad Prism V.5.04 (GraphPad Software, San Diego, CA). Data were graphed using GraphPad Prism V.5.04 (GraphPad Software, San Diego, CA). A probability of p≤0.05 was taken as the level of statistical significance. In addition, the total number of beam breaks from the amphetamine administration (65 min) to the end of the study (120 min) was calculated and graphed. Percent Reversal was calculated as follows using Microsoft Excel: In each animal, total ambulation from t=65 to t=120 was summed. The mean of each sum was calculated in the VAMP group. Then, for each animal, Percent Reversal was calculated with the following formula: Percent Reversal=100−{[(total ambulation in each animal from t=65 to t=120)/(mean of each sum from t=65 to t=120 in VAMP group)]*100}. The mean Percent Reversal, as well as the standard error, was calculated for each dose group using GraphPad Prism V5.04.

[6] = tested on: 68 primary molecular targets; test: Eurofins LeadProfilingScreen (binding); conditions: 10 μM (binding), 68 targets
Text: The screen includes 68 primary molecular targets, including several CNS targets recommended by the EMEA to evaluate drug dependence potential.

[7] = Rat fraction unbound in brain; type: in vitro ADME; conditions: read-out: Rat Fu (brain)
Text: as §1

MDCK-MDR1 = MDCK-MDR1 efflux ratio and permeability; type: in vitro ADME; conditions: efflux ratio
Text: as §1

[8] = MDCK-MDR1 efflux ratio and permeability; type: in vitro ADME; conditions: dog, MDCK-MDR1
Text: as §1

P450 2D6 = P450 2D6 (Homo sapiens, UniProt P10635); test: P450 2D6 inhibition; type: in vitro ADME
P450 2D6, sequence (P10635 whole entry): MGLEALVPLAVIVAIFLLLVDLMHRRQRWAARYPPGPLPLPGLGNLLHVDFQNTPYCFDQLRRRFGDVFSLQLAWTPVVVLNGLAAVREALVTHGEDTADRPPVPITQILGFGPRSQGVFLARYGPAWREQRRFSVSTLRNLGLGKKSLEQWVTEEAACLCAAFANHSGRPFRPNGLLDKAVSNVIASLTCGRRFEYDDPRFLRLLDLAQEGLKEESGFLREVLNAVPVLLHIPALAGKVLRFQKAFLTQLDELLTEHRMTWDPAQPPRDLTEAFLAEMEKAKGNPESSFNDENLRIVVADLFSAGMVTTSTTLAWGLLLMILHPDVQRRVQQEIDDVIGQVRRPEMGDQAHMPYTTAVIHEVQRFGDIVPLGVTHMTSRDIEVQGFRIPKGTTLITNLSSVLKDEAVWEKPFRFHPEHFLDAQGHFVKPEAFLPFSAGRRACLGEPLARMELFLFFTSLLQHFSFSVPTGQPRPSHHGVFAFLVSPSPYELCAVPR
Text: as §1

## [2H]C1([2H])Oc2ccc(OC3CCN(c4nc5c(cc4C)C(=O)NC5)CC3)cc2OC1([2H])[2H] [Compound 3, 2-(4-((2,3-dihydrobenzo[b][1,4]dioxin-6-yl-2,2,3,3-d4)oxy)piperidin-1-yl)-3-methyl-6,7-dihydro-5H-pyrrolo[3,4-b]pyridin-5-one]
P450 1A2
  IC50: > 100 µM
[1]
  fraction unbound: 0.026
[2]
  fraction unbound: 0.042
[3]
  fraction unbound: 0.022
Rat intrinsic clearance
  CLint scaled: 90 mL/min/kg
P450 2C9
  IC50: > 100 µM
[4]; 3 mg/kg oral
  Dog oral F: 89%
[4]; plasma, read-out: Dog CLp
  clearance: 1.8 mL/min/kg
[4]; plasma, read-out: Dog Elim. t1/2 (converted)
  half-life: 7.6 h
[4]; plasma, read-out: Dog Vss
  Vd: 1 L/kg
[5]; 1 mg/kg oral gavage
  percent reversal of amphetamine-induced hyperlocomotion: 27.5%
[5]; 1.8 mg/kg oral gavage
  percent reversal of amphetamine-induced hyperlocomotion: 40.1%
[5]; 3 mg/kg oral gavage
  percent reversal of amphetamine-induced hyperlocomotion: 59.1%
[5]; 5.6 mg/kg oral gavage
  percent reversal of amphetamine-induced hyperlocomotion: 60.9%
[5]; systemic administration
  reversal of amphetamine-induced hyperlocomotion (in words): significant and sustained reversal
[6]
  inhibition of each target in the LeadProfilingScreen: < 50%
[7]
  fraction unbound: 0.015
MDCK-MDR1
  MDCK-MDR1 ER: 1.3
[8]
  Papp A→B: 45.5 ×10⁻⁶ cm/s
P450 2D6
  IC50: > 100 µM
